Source: PubChem BioAssay (NCI)
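Cultured in 96-well plates, cells were exposed to test compound for 48 hours across five concentrations. The concentration for 50% growth inhibition is given as GI50. TGI: total growth inhibition.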

How the values were obtained:
Test in all cases: NCI anticancer screen, dose series, 48 h
786-0 renal = system: 786-0 renal
A549 NSCLC = system: A549 NSCLC
CAKI-1 renal = system: CAKI-1 renal
HOP-62 NSCLC = system: HOP-62 NSCLC
OVCAR-8 ovarian = system: OVCAR-8 ovarian
SF-295 CNS = system: SF-295 CNS
SNB-19 CNS = system: SNB-19 CNS
SNB-75 CNS = system: SNB-75 CNS
UACC-257 melanoma = system: UACC-257 melanoma
UACC-62 melanoma = system: UACC-62 melanoma

SMILES | GI50 (786-0 renal) [nM] | TGI (786-0 renal) [µM] | GI50 (A549 NSCLC) [µM] | TGI (A549 NSCLC) [µM] | GI50 (CAKI-1 renal) [µM] | TGI (CAKI-1 renal) [µM] | GI50 (HOP-62 NSCLC) [µM] | TGI (HOP-62 NSCLC) [µM] | GI50 (OVCAR-8 ovarian) [µM] | TGI (OVCAR-8 ovarian) [µM] | GI50 (SF-295 CNS) [µM] | TGI (SF-295 CNS) [µM] | GI50 (SNB-19 CNS) [µM] | TGI (SNB-19 CNS) [µM] | GI50 (SNB-75 CNS) [nM] | TGI (SNB-75 CNS) [µM] | GI50 (UACC-257 melanoma) [nM] | TGI (UACC-257 melanoma) [µM] | GI50 (UACC-62 melanoma) [nM] | TGI (UACC-62 melanoma) [µM]
O=C(Cn1ccnc1[N+](=O)[O-])NCC(F)(F)C(F)(F)F | > 100000 | > 100 | > 100 | > 100 | > 100 | > 100 | > 100 | > 100 | > 100 | > 100 | > 100 | > 100 | > 100 | > 100 | > 100000 | > 100 | > 100000 | > 100 | > 100000 | > 100
CCOC(=O)c1cc2ncccc2c2ccccc12 | – | > 100 | – | > 100 | – | > 100 | – | > 100 | – | > 100 | – | > 100 | – | > 100 | – | > 100 | – | > 100 | – | > 100
COc1ccc(Nc2ccnc(NCCCNc3ccnc4cc(Cl)ccc34)n2)cc1 | 1490 | 2.93 | 1.55 | 3.66 | 1.15 | 2.41 | 1.61 | 4.44 | 1.5 | 5.16 | 1.12 | 2.36 | 2.61 | 10.1 | 903 | 2.14 | 1330 | 2.75 | 1400 | 2.96
Nc1nccc(Nc2ccc(S(N)(=O)=O)cc2)n1 | – | > 100 | – | > 100 | – | > 100 | – | > 100 | – | > 100 | – | > 100 | – | > 100 | – | > 100 | – | > 100 | – | > 100
COc1ccc(F)cc1C(=O)c1cnc(NC2CCN(S(C)(=O)=O)CC2)nc1N | 5030 | > 25 | 3.14 | > 23.7 | 2.88 | > 17.6 | 5.42 | > 20.6 | 3.95 | > 21.6 | 1.68 | > 15.5 | 1.8 | > 25 | 3970 | 10.2 | 4240 | 15.5 | 2750 | 8.95
C=C[C@]1(C)C=C2C(=O)[C@@]3(O)OC(=O)[C@@]4(CCCC(C)(C)[C@H]34)[C@@]2(O)CC1 | 1680 | 3.13 | 2.38 | 7.26 | 1.33 | 3.02 | 4.17 | 15.7 | 1.69 | 5.63 | 4.43 | 17.8 | 6.33 | 19.7 | 1090 | 2.45 | 1330 | 2.91 | 1370 | 2.92
CC12CC3CC(C)(C1)CC(N=[N+]=[N-])(C3)C2 | – | > 100 | – | > 100 | – | > 100 | – | > 100 | – | > 100 | – | > 100 | – | > 100 | – | > 100 | – | > 100 | – | > 100
Cc1cc(C)nc(SC2=C(Nc3cccc(Cl)c3)C(=O)N(Cc3ccccc3)C2=O)n1 | > 170000 | > 170 | > 170 | > 170 | > 170 | > 170 | 42.3 | > 170 | > 170 | > 170 | > 170 | > 170 | > 170 | > 170 | > 170000 | > 170 | > 170000 | > 170 | 34900 | > 170
CN1CCN(Cc2ccc(NC(=O)c3cncc(C#Cc4c(N)ncc5cc(F)ccc45)c3)cc2C(F)(F)F)CC1 | 892 | 1.63 | 0.887 | 1.73 | 3.3 | 10.1 | 2.4 | 12 | 1.27 | 3.57 | 6.47 | 14 | 0.87 | 1.57 | 2020 | 7.84 | 975 | 2.4 | 1880 | 5.18
O=C(/C=C\Sc1nccc(C(F)(F)F)n1)c1ccc(Br)cc1 | 16300 | 34.2 | > 100 | > 100 | 18 | 35.1 | > 100 | > 100 | 45.9 | > 100 | > 100 | > 100 | 36.9 | > 100 | 28900 | > 100 | 56400 | > 100 | 23600 | 60.7
O=C(O)CC1(C(=O)O)CCCCC1 | – | > 100 | – | > 100 | – | > 100 | – | > 100 | – | > 100 | – | > 100 | – | > 100 | – | > 100 | – | > 100 | – | > 100
COc1ccccc1NC(=O)C1=C(C)NC(C)=C(C(=O)Nc2ccccc2OC)C1c1ccccc1OC | – | > 100 | – | > 100 | – | > 100 | – | > 100 | – | > 100 | – | > 100 | – | > 100 | – | 69 | – | > 100 | – | > 100
O=C(Nc1ccc(Br)c(Cl)c1)c1cc(F)ccc1O | 1060 | 5.73 | 1.75 | > 50 | 0.826 | 3.46 | 0.893 | > 13.2 | 1.21 | > 30.5 | 0.933 | 1.89 | 0.729 | > 50 | 591 | 4.53 | 526 | 2.79 | 242 | 2.09
CCCC(=O)NNc1[nH]c(-c2ccc(OC)cc2)cc1C(=O)OCC | 20100 | 34.9 | 21.5 | 44.8 | 12.5 | 25.7 | > 100 | > 100 | 17.8 | 48.3 | 38 | > 100 | 54.3 | > 100 | 15400 | 29.4 | 1600 | 14.8 | 16400 | 30
CC/C(=C(\CC)c1ccc(OCCN(CC)CC)cc1)c1ccc(OCCN(CC)CC)cc1 | 1600 | 3.66 | 3.81 | 15.5 | 3.17 | 15.7 | 1.73 | 4.76 | 5.85 | 19.3 | 1.37 | 3.91 | 3.26 | 10.6 | 2830 | 11 | 1230 | 2.82 | 1920 | 4.29
